One block for each compound: values may come before it.
Assays:
Assay type in all cases: physicochemical
[1] = LNP size and polydispersity index (PDI) by dynamic light scattering (DLS)
[2] = LNP Zeta potential measured using a Zetasizer (Malvern); settings: for Zeta potential: hEPO mRNA, N:P 6; for Zeta potential (mV): LNP with hEPO mRNA, N:P ratio 6
[3] = Encapsulation efficiency (EE %) by fluorescence based Ribogreen assay
[4] = Table 6, LNP 50:10:38.5:1.5 mol %, hEPO mRNA, N:P 6
[5] = Table 6, LNP 60:0:38.5:1.5 mol %, hEPO mRNA, N:P 6
[6] = Table 1, LNP lipid:DSPC:Cholesterol:DMG-PEG2k 50:10:38.5:1.5 mol %, hEPO mRNA, N:P 6
[7] = Table 1, LNP lipid:DSPC:Cholesterol:DMG-PEG2k 50:10:38.5:1.5 mol %
[8] = Table 9, LNP 50:10:38.5:1.5 mol %, hEPO mRNA, N:P 6
[9] = Table 9, LNP Lipid:DSPC:Cholesterol:DMG-PEG2k 50:10:38.5:1.5 mol %, hEPO mRNA, N:P 6
[10] = Table 9, LNP 50:10:38.5:1.5 mol %
[11] = Table 11, LNP with hEPO mRNA, Lipid:DSPC:Cholesterol:DMG-PEG2k 50:10:38.5:1.5 mol % (ALC-0315: 46.3:9.4:42.7:1.6), N:P ratio 6, HEPES/sodium chloride/sucrose buffer, stored at −80C
[12] = Table 11, Lipid:DSPC:Cholesterol:DMG-PEG2k 50:10:38.5:1.5 mol % (ALC-0315: 46.3:9.4:42.7:1.6), HEPES/sodium chloride/sucrose buffer, stored at −80C
[13] = Table 8, LNP 50:10:38.5:1.5 mol %, hEPO mRNA, N:P 6
[14] = Table 8, LNP Lipid:DSPC:Cholesterol:DMG-PEG2k 50:10:38.5:1.5 mol %, hEPO mRNA, N:P 6
[15] = Table 8, LNP 50:10:38.5:1.5 mol %
[16] = Table 10, LNP with hEPO mRNA, Lipid:DSPC:Cholesterol:DMG-PEG2k 50:10:38.5:1.5 mol %, N:P ratio 6, DLS

SMILES: CCCCCCCCC(CCCCCC)C(=O)OCCN(CCOC(=O)C(CCCCCC)CCCCCCCC)C(=O)CCN (stereo not drawn) [Compound 801]
PDI [1, 4]: 0.436 | PDI [1, 5]: 0.169 | Size [1, 5]: 93.6 nm | Size ([1]; Table 6, LNP lipid:DSPC:Cholesterol:DMG-PEG2k 50:10:38.5:1.5 mol %, hEPO mRNA, N:P 6): 105.8 nm | Zeta potential ([2]; Table 6, LNP 50:10:38.5:1.5 mol %): −1.5 mV | Zeta potential ([2]; Table 6, LNP 60:0:38.5:1.5 mol %): 1.6 mV | Encapsulation Efficiency % [3, 4]: 98.5% | Encapsulation Efficiency % [3, 5]: 98.4%

SMILES: CCCCCCCCCC(=O)OCCN(CCOC(=O)CCCCCCCCC)C(=O)C(N)CO (stereo not drawn) [Compound 135]
PDI [1, 6]: 0.228 | Size [1, 6]: 111.3 nm | Zeta potential [2, 7]: 2.909 mV | Encapsulation Efficiency % [3, 6]: 89.8%

SMILES: CCCCCCCCC(CCCCCC)C(=O)OCCN(CCOC(=O)C(CCCCCC)CCCCCCCC)C(=O)CCCN(C)C (stereo not drawn) [Compound 931]
PDI [1, 13]: 0.117 | Size [1, 14]: 125.8 nm | Zeta potential [2, 15]: −8.457 mV | Encapsulation Efficiency % [3, 13]: 99.9%

SMILES: CCCCCCCC/C=C\CCCCCCCC(=O)OCCN(CCOC(=O)CCCCCCC/C=C\CCCCCCCC)C(=O)C(N)CO (stereo not drawn) [Compound 132]
PDI [1, 6]: 0.15 | Size [1, 6]: 75.4 nm | Zeta potential [2, 7]: −4.36 mV | Encapsulation Efficiency % [3, 6]: 92.9%

SMILES: CCCCCCCCC(CCCCCC)C(=O)OCCN(CCOC(=O)C(CCCCCC)CCCCCCCC)C(=O)CCCN1CCCCC1.Cl (stereo not drawn) [Compound 983]
PDI [1, 13]: 0.114 | Size [1, 14]: 90.4 nm | Zeta potential [2, 15]: −15.9 mV | Encapsulation Efficiency % [3, 13]: 97.1%

SMILES: CCCCCCCC/C=C\CCCCCCCC(=O)OCCN(CCOC(=O)C(CCCCCC)CCCCCCCC)C(=O)CCN(CC)CC (stereo not drawn) [Compound 917a]
PDI [1, 16]: 0.124 | Size (nm) [1, 16]: 82.8 nm | Zeta potential (mV) ([2]; Table 10, Lipid:DSPC:Cholesterol:DMG-PEG2k 50:10:38.5:1.5 mol %): −5.5 mV | Encapsulation Efficiency % ([3]; Table 10, LNP with hEPO mRNA, Lipid:DSPC:Cholesterol:DMG-PEG2k 50:10:38.5:1.5 mol %, N:P ratio 6, Ribogreen assay): 43.4%

SMILES: CCCCCCCCC(CCCCCC)C(=O)OCCN(CCOC(=O)C(CCCCCC)CCCCCCCC)C(=O)CN(C)CC.Cl (stereo not drawn) [Compound 966]
PDI [1, 8]: 0.076 | Size [1, 9]: 89.5 nm | Zeta potential [2, 10]: −36.65 mV | Encapsulation Efficiency % [3, 8]: 97.8%

The next lines start with the values.

PDI [1, 8]: 0.384 | Size [1, 9]: 73.3 nm | Zeta potential [2, 10]: −45.58 mV | Encapsulation Efficiency % [3, 8]: 99.4%
SMILES: CCCCCCCCC(CCCCCC)C(=O)OCCN(CCOC(=O)C(CCCCCC)CCCCCCCC)C(=O)CN1CCOCC1.Cl (stereo not drawn) [Compound 960e]

PDI [1, 11]: 0.114 | Size (nm) [1, 11]: 74.2 nm | Zeta potential (mV) [2, 12]: −1.5 mV | Encapsulation Efficiency % [3, 11]: 99.2%
SMILES: CCCCCCCCC(CCCCCC)C(=O)OCCN(CCOC(=O)C(CCCCCC)CCCCCCCC)C(=O)C(C)CCN(C)CCO.Cl (stereo not drawn) [Compound 987p]

PDI [1, 11]: 0.072 | Size (nm) [1, 11]: 79.4 nm | Zeta potential (mV) [2, 12]: −2.8 mV | Encapsulation Efficiency % [3, 11]: 92.3%
SMILES: CCCCCCCCC(CCCCCC)C(=O)OCCN(CCOC(=O)C(CCCCCC)CCCCCCCC)C(=O)C(C)CCN(C)CC.Cl (stereo not drawn) [Compound 987f]

PDI [1, 11]: 0.045 | Size (nm) [1, 11]: 76.7 nm | Zeta potential (mV) [2, 12]: −3.4 mV | Encapsulation Efficiency % [3, 11]: 87.2%
SMILES: CCCCCCCCC(CCCCCC)C(=O)OCCN(CCOC(=O)C(CCCCCC)CCCCCCCC)C(=O)C(C)CCN(CCC)CCC.Cl (stereo not drawn) [Compound 987k]

Source: US20250268826A1, “IONIZABLE LIPIDOID COMPOSITIONS AND THERAPEUTIC USES THEREOF” (Flagship Pioneering Innovations VII, LLC, priority 2023, published 2025)
